“Also recorded” adds a separate entry of the source.
What was measured:
[1] = system: insulin signaling in liver, leptin signaling in hypothalamus; assay: insulin and leptin signaling in liver and hypothalamus lysates of treated mice; format: in vivo; conditions: HFD mice
Method: Fig. 9 Chelerythrine improved metabolism and promoted insulin and leptin signaling in mice. a Body weight of male mice (C57bl6/J) fed high fat diet and treated with chelerythrine (3 mg kg^−1), protopine (3 mg kg^−1) or saline was monitored from the beginning of the treatment (10 weeks of age) until the study was terminated (14 weeks of age). Data represent the mean ± s.e.m. (n = 10 in each group). b HFD fed 14-week-old male mice treated with saline or chelerythrine were administered D-glucose (2 mg g^−1 body weight), and blood glucose was monitored over the defined time. Data represent the mean ± s.e.m. (n = 10 in each group) and statistical analysis was performed using two-way ANOVA (*p < 0.05, **p < 0.01). c HFD fed 14-week-old male mice treated with saline or chelerythrine were administered insulin (0.75 mU g^−^1 body weight), and blood glucose was monitored over the defined time. Data represent mean ± s.e.m. (n = 10 in each group) and statistical analysis was performed using two-way ANOVA (*p < 0.05). d Representative immunoblots showing insulin-induced tyrosine phosphorylation of IR-β and phosphorylation of AKT, and their corresponding total protein levels, in liver tissue lysates from 14-week-old male mice treated with saline, chelerythrine or protopine. For insulin stimulation, animals were treated with insulin (0.75 mU g^−1, i.p.) for 15 min. e Representative immunoblots showing leptin-induced tyrosine phosphorylation of JAK2 and corresponding total JAK2 levels in the hypothalamus tissue lysates from 14-week-old male mice treated with saline, chelerythrine or protopine. For leptin stimulation, animals were treated with leptin (1 mg kg^−^1, s.c.) for 15 min. All immunoblots are representative of tissue lysates generated from at least three independent animals for each condition (n = 3). Immunoblots were quantified using ImageJ software. Quantitation includes all independent data from the respective experiments and is presented as the mean ± s.e.m. d, e Statistical analysis was performed using two-way ANOVA (*p < 0.05)
Animal experiments were performed according to protocols approved by the Institutional Animal Use and Care Committee of Cold Spring Harbor laboratory. Ten week-old male C57bl6/J mice fed chow diet or high fat diet (D12492) were acclimatized for 10 days under standard conditions before experiments. Mice were intraperitoneally (i.p.) injected once daily with vehicle, 3 mg kg^−1 of chelerythrine or 3 mg kg^−1 of protopine for 30 days. Mice were killed after 6 h of fasting, and serum samples were collected to measure the metabolic parameters and tissue samples were collected for studying changes in signaling. No animals were excluded from the analysis.

[2] = molecular target: T1, oxidized PTP1B-mut2 (L37F/K39E/K41R) (Homo sapiens, UniProt P18031, K39E/K41R/L37F); assay: reduction and reactivation of oxidized PTP1B-mut2, DiFMUP, TCEP; format: biochemical; conditions: TCEP 5 mM
T1 construct: PTP1B (1–321) and TCPTP (1–317) cloned in pET21b vector were used as templates; 6xHis (C); made in house; host or cells: E. coli BL21 (DE3)-RIL
T1 sequence (P18031 1-321 L37F/K39E/K41R): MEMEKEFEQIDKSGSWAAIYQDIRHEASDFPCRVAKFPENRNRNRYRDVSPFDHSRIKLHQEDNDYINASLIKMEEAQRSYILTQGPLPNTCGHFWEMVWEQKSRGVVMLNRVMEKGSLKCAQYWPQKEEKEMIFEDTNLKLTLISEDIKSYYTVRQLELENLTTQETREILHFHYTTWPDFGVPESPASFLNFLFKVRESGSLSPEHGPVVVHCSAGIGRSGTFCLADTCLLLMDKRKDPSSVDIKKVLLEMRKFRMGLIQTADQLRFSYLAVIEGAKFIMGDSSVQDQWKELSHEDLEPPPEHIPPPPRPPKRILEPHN
Method: Fig. 1 Molecular characterization of PTP1B-scFv45 interaction. a Overlay of PTP1B (gray) and TCPTP (pale blue) crystal structures, highlighting residues that are changed in generating mutant forms (-mut1 and -mut2) of the enzymes. b Increasing concentrations of recombinant HA-tagged scFv45 were incubated with oxidized wild-type (-wt) or mutant (-mut) forms of PTP1B (top panel) and oxidized wild-type or mutant forms of TCPTP (bottom panel). The protein complexes were precipitated with anti-HA-agarose beads and equivalent amounts of input, supernatant, and eluate were subjected to immunoblot analysis. Data are representative of at least three independent experiments (n = 3). c Michaelis–Menten plots for wild-type (circle), -mut1 (square), or -mut2 (triangle) forms of PTP1B (left) and TCPTP (right) are shown. […] Individual data points represent the mean obtained from three separate experiments (n = 3). d Wild-type and mutant forms of PTP1B were incubated with increasing concentrations of H2O2 and phosphatase activity was measured using DiFMUP in the absence (black bar) and presence (gray bar) of the reducing agent TCEP (5 mM). e Oxidized PTP1B-wt (circle), PTP1B-mut1 (square), or PTP1B-mut2 (triangle) were incubated with increasing concentration of scFv45 (0–1000 nM) and phosphatase activity was measured using DiFMUP as substrate in the presence of the reducing agent TCEP (5 mM). […]

[3] = system: leptin signaling in hepatic stellate cells; assay: leptin signaling in hepatic stellate cells (immunoblot); format: cell-based, human; conditions: for effect on JAK2 phosphorylation in presence of apocynin: NOX inhibitor apocynin; for leptin-induced tyrosine phosphorylation of JAK2: chelerythrine 0–5 μM or ectopic scFv45
Method: Human hepatic stellate cells (HSteCs; ScienCell research laboratories, CA) were cultured according to manufacturer’s instructions. Cells were seeded on poly-L-lysine coated dishes and maintained in Stellate Cell Medium (SteCM, Cat. #5301). When cells reached 70% confluency they were split for various experiments. To study leptin signaling, HSCs were incubated in serum-free DMEM for 24 h and then stimulated with varying concentration of leptin (0, 10, 25, 50, 100, and 200 ng ml^−1) for 15 min. To study the effect of chelerythrine and protopine, serum starved cells were incubated with the compounds at varying concentrations (0–5 µM) for 1 h prior to leptin stimulation. In some groups, cells were pre-incubated (60 min) with the NADPH oxidase inhibitor apocynin (100 nM), before stimulation with leptin.

[4] = insulin 0.75 mU g−1 i.p. 15 min

Molecule | AKT phosphorylation in liver [1, 4] | IR-β phosphorylation in liver [1, 4] | phosphorylation of JAK2 in hypothalamus ([1]; leptin 1 mg kg−1 s.c. 15 min) | inhibition of reduction and reactivation of oxidized PTP1B-mut2 [2] | effect on JAK2 phosphorylation in presence of apocynin [3] | leptin-induced tyrosine phosphorylation of JAK2 [3]
COc1ccc2c(c[n+](C)c3c4cc5c(cc4ccc23)OCO5)c1OC [chelerythrine] | enhanced | marked increase | enhanced phosphorylation of JAK2 | unable to inhibit; also recorded: insensitive | attenuated | dose-dependent increase
CN1CCc2cc3c(cc2C(=O)Cc2ccc4c(c2C1)OCO4)OCO3 [protopine] | – | not observed | – | – | – | –
scFv45: recombinant conformation-sensor single-chain variable fragment antibody recognizing oxidized PTP1B (antibody, V domains shown) VH: TVTLDESGGGLQAPGGALSLVCKASGFTFSSYDMGWIRQAPGKGLEYVAGITDNGRYASYGSAVDGRATISRDNGQSSVRLQLNNLRAEDTGTYYCARDDGSGWTGNSIDAWGHGTEVIVSE VL: ALTQPSSVSANPGGTVKITCSGSSSAYGYGWYQQKSPGSAPVTVIYNNNKRPSNIPSRFSGSKSGSTGTLTITGVQAEDEAVYFCGSEDSSTDAIFGAGTTLTVL | – | – | – | did not attenuate | abrogated | enhanced phosphorylation of JAK2
